Data reported in patent US20180243421A1, “IMMUNOSTIMULATING AGENT” (AJINOMOTO CO., INC., priority 2015, published 2018).

Columns and labels:
[1] = tested on: anti-OVA-specific IgG1 subclass antibody; experiment: Adjuvant activity: anti-OVA-specific IgG1 subclass antibody in serum after secondary immunization (Examples 12, 19, 20, 21); type: in vivo, BALB/c mice; conditions: two weeks from secondary immunization
Experimental: 8-Week-old female BALB/c mice were divided into groups (N=6), and each group was primarily immunized by dorsal-subcutaneous administration of (1) ovalbumin (OVA) (5 μg) dissolved in saline as an antigen (OVA single administration group), (2) OVA (5 μg) added to 5% αCD-added saline, (3) OVA (5 μg) added to 10% HP-β-CD-added saline, (4) OVA (5 μg) and SZ62 (0.256 μmol) dissolved or dispersed in 5% αCD-added saline, and (5) OVA (5 μg) and SZ62 (0.256 μmol) dissolved in 10% HP-β-CD-added saline, each per mouse. One week later, the secondary immunization was carried out by dorsal-subcutaneous administration of solutions or dispersions similar to those of the above-mentioned (1) to (5) again. Two weeks from the secondary immunization, the blood was extracted under anesthesia, and the obtained serum samples were measured for anti-OVA-specific IgG1 subclass antibody.
(§1) Measurement Method of Concentration of anti-OVA-specific IgG1 Subclass Antibody and anti-OVA-specific IgG2a Subclass Antibody
(§2) To a 96 well plate was added 5 μg/ml OVA at 100 μl/well, and the mixture was incubated at 4° C. overnight. After incubation, the mixture was washed three times with 200 μl of PBS-T (PBS+0.05% (v/v) Tween 20) per well, and blocked with 100 μl of 5% FCS/PBS solution per well at room temperature for 1 to for 2 hr. Thereafter, the mixture was washed three times with PBS-T (200 μl/well), a diluted serum sample (100 μl/well) or the same amount of 5% FCS/PBS solution as a control was added, to and the mixture was incubated at 37° C. for 1 hr. To calculate concentration of the antibody, the standard of an anti-OVA-specific IgG1 subclass antibody diluted with 2% FCS/PBS solution was added at 100 ng/ml, 50 ng/ml, 25 ng/ml, 12.5 ng/ml, 6.25 ng/ml, 3.125 ng/ml, 1.56 ng/ml, 0.781 ng/ml, 0.391 ng/ml, 0.195 ng/ml, 0.098 ng/ml, 0 ng/ml, per 1 well. When an anti-OVA-specific IgG2a subclass antibody was measured, the standard of an anti-OVA-specific IgG2a subclass antibody was added at 50 ng/ml, 25 ng/ml, 12,5 ng/ml, 6.25 ng/ml, 3.125 ng/ml, 1.56 ng/ml, 0.781 ng/ml, 0.391 ng/ml, 0.195 ng/ml, 0.098 ng/ml, 0.049 ng/ml, 0 ng/ml, per 1 well. […] Thereafter, the mixture was washed five times with PBS-T (200 μl/well), a diluted anti-biotin-HRP antibody was added (100 μl/well), and the mixture was incubated at 37° C. for another 30 min. Thereafter, the mixture was washed five times with PBS-T (200 μl/well), TMB substrate solution was added (100 μl/well), and the mixture was incubated at room temperature for 10- for 15 min. Thereafter, a reaction quenching liquid (2N sulfuric acid solution) was added (50 μl/well) to discontinue a color developing reaction, and the absorbance (OD Value=450 nm) was measured by a microplate reader. A standard curve was drawn from the measured OD values, and the concentration was calculated.
8-Week-old female BALB/c mice were divided into groups (N=6), and each group was primarily immunized by dorsal-subcutaneous administration of (1) ovalbumin (OVA) (5 μg) dissolved in saline as an antigen (OVA single administration group), (2) OVA 10 μg and Addavax™ (mixed with saline at 1:1) dissolved in saline (Addavax™ administration group), (3) OVA (5 μg) and SZ86 (0.256 μmol) dissolved or dispersed in 5% αCD-added saline (SZ86 administration group), (4) OVA (5 μg) and SZ90 (0.256 μmol) dissolved or dispersed in 5% αCD-added saline (SZ90 administration group), (5) OVA (5 μg) and SZ92 (0.256 μmol) dissolved or dispersed in 5% αCD-added saline (SZ92 administration group), (6) OVA (5 μg) and SZ99 (0.256 μmol) dissolved or dispersed in 5% αCD-added saline (SZ99 administration group), (7) OVA (5 μg) and SZ106 (0.256 μmol) dissolved or dispersed in 5% αCD-added saline (SZ106 administration group), each per mouse. One week later, the secondary immunization was carried out by dorsal-subcutaneous administration of solutions or dispersions similar to those of the above-mentioned (1)-(7) again.

[2] = tested on: anti-OVA-specific IgG1 subclass antibody; experiment: Adjuvant activity after primary immunization: anti-OVA-specific IgG1 subclass antibody in serum (Examples 13-18); type: in vivo, BALB/c mice; conditions: OVA 5 μg + 0.256 μmol in 5% αCD saline s.c., serum after 12 days
Experimental: 8-Week-old female BALB/c mice were divided into groups (N=6), and each group was primarily immunized by dorsal-subcutaneous administration of (1) ovalbumin (OVA) (5 μg) dissolved in saline as an antigen (OVA single administration group), (2) OVA (5 μg) and SZ83 (0.256 μmol) dissolved or dispersed in 5% αCD-added saline (SZ83 administration group), (3) OVA (5 μg) and SZ84 (0.256 μmol) dissolved or dispersed in 5% αCD-added saline (SZ84 administration group), (4) OVA (5 μg) and SZ86 (0.256 μmol) dissolved or dispersed in 5% αCD-added saline (SZ86 administration group), (5) OVA (5 μg) and SZ89 (0.256 μmol) dissolved or dispersed in 5% αCD-added saline (SZ89 administration group), (6) OVA (5 μg) and SZ90 (0.256 μmol) dissolved or dispersed in 5% αCD-added saline (SZ90 administration group), each per mouse. After 12 days, blood samples were collected under anesthesia, and the obtained serum samples were subjected to the measurement of an anti-OVA-specific IgG1 subclass antibody.
as §1, §2
8-Week-old female BALB/c mice were divided into groups (N=6), and each group was primarily immunized by dorsal-subcutaneous administration of (1) ovalbumin (OVA) (5 μg) dissolved in saline as an antigen (OVA single administration group), (2) OVA (5 μg) and SZ92 (0.256 μmol) dissolved or dispersed in 5% αCD-added saline (SZ92 administration group), (3) OVA (5 μg) and SZ94 (0.256 μmol) dissolved or dispersed in 5% αCD-added saline (SZ94 administration group), (4) OVA (5 μg) and SZ95 (0.256 μmol) dissolved or dispersed in 5% αCD-added saline (SZ95 administration group), (5) OVA (5 μg) and SZ96 (0.256 μmol) dissolved or dispersed in 5% αCD-added saline (SZ96 administration group), each per mouse. After 12 days, blood samples were collected under anesthesia, and the obtained serum samples were subjected to the measurement of anti-OVA-specific IgG1 subclass antibody.

[3] = Example 20, OVA 5 μg + 0.256 μmol in 5% αCD saline s.c. (Addavax 1:1 with OVA 10 μg)
[4] = Example 19, OVA 5 μg + 0.256 μmol in 5% αCD saline s.c. (Addavax 1:1 with OVA 10 μg)

CCCCCCCCCCCCCCCC(=O)NC(=N)NCCCCN [SZ62, N-hexadecanoylagmatine]
anti-OVA-specific IgG1 subclass antibody production as compared to the OVA single administration group ([1]; Example 12, SZ62 0.256 μmol dispersed in 5% αCD-added saline, OVA 5 μg s.c.): significantly increased | anti-OVA-specific IgG1 subclass antibody production as compared to the OVA single administration group ([1]; Example 12, SZ62 0.256 μmol dissolved in 10% HP-β-CD-added saline, OVA 5 μg s.c.): significantly increased

CCCCCCCCCCCCCCCCCCCCCC(=O)NC(=N)NCCCCN.Cl [SZ108, N-docosanoylagmatine hydrochloride salt]
anti-OVA-specific IgG1 subclass antibody production after primary immunization as compared to the OVA single administration group ([2]; Example 16): significantly increased | anti-OVA-specific IgG1 subclass antibody production as compared to the OVA single administration group [1, 3]: tended to increase

CCCCCCCCCCCCCCCC(=O)N[C@@H](CC(C)C)C(=O)N(CC)CC [SZ92, N^2-hexadecanoyl-N^1,N^1-diethyl-L-leucinamide]
anti-OVA-specific IgG1 subclass antibody production after primary immunization as compared to the OVA single administration group ([2]; Example 14): significantly increased | anti-OVA-specific IgG1 subclass antibody production as compared to the OVA single administration group [1, 4]: significantly increased | anti-OVA-specific IgG1 subclass antibody production as compared to the OVA single administration group [1, 3]: significantly increased

CCCCCCCCCCCCCCCC(=O)N[C@@H](CC(C)C)C(=O)OCCCCCC [SZ97, N-hexadecanoyl-L-leucine hexyl ester]
anti-OVA-specific IgG1 subclass antibody production after primary immunization as compared to the OVA single administration group ([2]; Example 15): show a tendency to increase | anti-OVA-specific IgG1 subclass antibody production as compared to the OVA single administration group [1, 3]: significantly increased

CCCCCCCCCCCCCCCC(=O)N[C@@H](CCCNC(=N)N)C(=O)OCCCCCC.Cl [SZ99, N^2-hexadecanoyl-L-arginine hexyl ester hydrochloride salt]
anti-OVA-specific IgG1 subclass antibody production after primary immunization as compared to the OVA single administration group ([2]; Example 15): significantly increased | anti-OVA-specific IgG1 subclass antibody production as compared to the OVA single administration group [1, 4]: tended to increase

CCCCCCCCCCCCCCCCCCC(CCCCCCCCCCCCCCCCCC)C(=O)N[C@@H](CC(C)C)C(=O)OC [SZ86, N-(2-octadecyleicosanoyl)-L-leucine methyl ester]
anti-OVA-specific IgG1 subclass antibody production after primary immunization ([2]; Example 13): show a tendency to increase | anti-OVA-specific IgG1 subclass antibody production as compared to the OVA single administration group [1, 4]: tended to increase | anti-OVA-specific IgG1 subclass antibody production as compared to the OVA single administration group [1, 3]: tended to increase

CCCCCCCCCCCCCCCCCCCCCC(=O)N[C@@H](CCC(=O)O)C(=O)N(CC)CC [SZ106, N^2-docosanoyl-N^1,N^1-diethyl-L-glutamic acid 1-amide]
anti-OVA-specific IgG1 subclass antibody production after primary immunization as compared to the OVA single administration group ([2]; Example 15): show a tendency to increase | anti-OVA-specific IgG1 subclass antibody production as compared to the OVA single administration group [1, 4]: tended to increase | anti-OVA-specific IgG1 subclass antibody production as compared to the OVA single administration group [1, 3]: tended to increase
